Results from patent US9244073B2, “Assays for detecting enzymatic activity” (Wellstat Diagnostics, LLC, priority 2011, dated 2016).

Legend:
Type in all cases: biochemical
bovine FX = assay: Detecting plasma FIX activity by detecting FXa activity using an immunoassay (ECL); conditions: diluted reference plasma
Experimental: A FIX activity calibrator curve was set up in a 96-well U bottom microtiter plate, which was equilibrated to 37° C. in an incubator. All coagulating factor reagents were from Haematologic Technologies, Inc. ((HTI), Essex Junction, Vt.), unless specifically noted. To 50 μL of a factor reagent containing 1.6 nM bovine FXIa (Cat: HCX1A-0160), 0.0681 nM bovine α-thrombin (Cat: BCT-1020), 24.5 nM bovine FX (BCX-1050), […] FVIII (Cat: PRO-318, PROSPEC, Rehovot, Israel), 100 μM phosphorliposome (80% phosphatidylcholine and 20% phosphatidylserine) and 0.75 mM Gly-Pro-Arg-Pro amide (Cat: GPRP-NH2. Sigma, St. Louis; SEQ ID NO:32), 25 μL of a diluted reference plasma (HEMOSIL™ Calibration Plasma, Cat: 0020003700, Diapharma Group Inc., Columbus, Ohio) containing 24.4, 8.13, 2.71, 0.904, 0.301, 0.100 and 0.0335 mU/mL of FIX in the assay buffer (Example 4) were added, mixed and incubated for exactly 10 minutes in a hot plate set at 37° C. After the incubation, to the 75 μL of assay mixture, 50 μL of a master mix of FXa detection reagent (Example 4), containing 200 μg/mL of M280-SA beads, 600 ng/mL of a peptide (peptide sequence III), 1000 ng/mL of TAG Plus anti-FLAG® M1 antibody (Example 2), and 30 μg/mL I-2581 (synthetic thrombin inhibitor, cat: 82110810, DiaPharma Group Inc. West Chester, Ohio 45069) in assay buffer (Example 4) was added and incubated for a final 20 minutes at 37° C. After the incubation, the beads were washed once in 150 μL of a PBS-based buffer solution (Example 3) and were resuspended in 150 μL of the same buffer before beads were read in a M1MR analyzer (BioVeris).

FXa = assay: Detecting FXa activity by detection of a neoepitope, competitive immunoassay format (ECL); conditions: for % Signal Decrease / Mean Signal: 15 minutes at 37° C.
Source text: Another method for detecting FXa activity uses a competitive immunoassay format. For example, peptide sequence VI, below, comprises a FXa recognition site (-IEGR-) (SEQ ID NO:1) at its N-terminus and the peptide sequence IV-amide (DYKDDDDKGS-amide) (SEQ ID NO:4) at its C-terminus. The FXa cleavage of the peptide bond after the arginine residue of -IEGR- (SEQ ID NO:1) sequence produces a neoepitope (SEQ ID NO:4), which can be measured with a TAG Plus-conjugated peptide (sequence VII) and a capture antibody in a competitive immunoassay format.
A FXa activity calibrator curve was set up in a 96-well U bottom microtiter plate containing 100 μL of a 3-fold serial dilution of FXa at 500, 167, 55.6, 18.5, 6.17, 2.06 and 0.686 ng/mL in the assay buffer (Example 4) and 50 μL of a master mix of FXa detection reagent containing 200 μg/mL of M280-SA beads prebound with biotinylated capture antibody (5.0 μg antibody per 1.0 mg of beads) (anti-FLAG® MD, 200 μg/mL of the NH2-IEGRDYKDDDDKGS-amide (Peptide sequence VI; SEQ ID NO:5) and 100 ng/mL of NH2-DYKDDDDKGS-TAG Plus (Peptide sequence VII; SEQ ID NO:4) in the same assay buffer. The plate was incubated on a hot plate (Example 4) at 37° C. for 15 minutes. After the incubation, the beads were washed once in 150 μL of the PBS-based buffer solution (Example 3) and were resuspended in 150 μL of the PBS-based buffer and read in a M1MR analyzer (BioVeris). FXa activities were detectable at 1.0 ng/mL or lower concentrations which produced about a 10% decrease of the background signals (the sample without FXa).

bovine factor Xa = assay: Detecting heparin activity with an ECL-based FXa activity immunoassay (with human antithrombin)
Experimental: A heparin activity calibrator curve was set up in a 96-well U bottom microtiter plate, which was equilibrated to 37° C. in an incubator. To each well, 25 μL of 100, 50, 25, 12.5, 6.25 and 3.13 mIU/mL heparin prepared from a heparin sodium Salt (Cat: H4784-2500MG, Sigma, St. Louis) and 25 μL of 1.0 IU/mL human antithrombin (from kit of BIOPHEN Heparin Anti-Xa, Ref: 221010, Aniara Diagnostica LLC, Columbus, Ohio) were added and incubated for 2 minutes at 37° C. Then to the mixture, 25 μL of 8.0 μg/mL bovine factor Xa (from kit of BIOPHEN Heparin Anti-Xa, Ref: 221010, Aniara Diagnostica LLC, Columbus, Ohio) was added, followed immediately with 25 μL of a master mix of FXa detection reagent containing 400 μg/mL of M280-SA beads, 1.2 μg/mL of a peptide (peptide sequence V), 2.0 μg/mL of TAG Plus anti-FLAG® M1 antibody (Example 2) and 25 mM CaCl2. The subsequent mixture was incubated for a final 20 minutes at 37° C. After the incubation, the beads were washed once in 150 μL of the PBS-based buffer solution (Example 3) and were resuspended in 150 μL of the same buffer before beads were read in a M1MR Analyzer (BioVeris).

bovine factor Xa, sequence (P01008 33-464): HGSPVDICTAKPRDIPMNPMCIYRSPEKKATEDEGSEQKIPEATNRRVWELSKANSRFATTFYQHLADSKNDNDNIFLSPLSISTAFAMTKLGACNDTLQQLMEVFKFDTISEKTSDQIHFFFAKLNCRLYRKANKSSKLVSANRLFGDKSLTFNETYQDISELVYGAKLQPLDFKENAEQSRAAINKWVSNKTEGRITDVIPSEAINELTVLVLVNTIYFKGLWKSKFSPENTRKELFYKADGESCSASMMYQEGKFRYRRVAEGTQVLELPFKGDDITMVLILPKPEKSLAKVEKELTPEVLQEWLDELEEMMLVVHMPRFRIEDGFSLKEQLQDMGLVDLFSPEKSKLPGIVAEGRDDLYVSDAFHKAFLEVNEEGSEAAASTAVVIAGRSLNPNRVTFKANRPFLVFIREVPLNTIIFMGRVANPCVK
FXa, sequence (P00742 41-179 limits assumed): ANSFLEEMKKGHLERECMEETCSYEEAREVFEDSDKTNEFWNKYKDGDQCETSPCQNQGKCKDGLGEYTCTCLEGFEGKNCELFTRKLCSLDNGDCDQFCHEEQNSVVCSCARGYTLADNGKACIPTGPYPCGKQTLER
FXa, sequence (P00742 235-488 limits assumed): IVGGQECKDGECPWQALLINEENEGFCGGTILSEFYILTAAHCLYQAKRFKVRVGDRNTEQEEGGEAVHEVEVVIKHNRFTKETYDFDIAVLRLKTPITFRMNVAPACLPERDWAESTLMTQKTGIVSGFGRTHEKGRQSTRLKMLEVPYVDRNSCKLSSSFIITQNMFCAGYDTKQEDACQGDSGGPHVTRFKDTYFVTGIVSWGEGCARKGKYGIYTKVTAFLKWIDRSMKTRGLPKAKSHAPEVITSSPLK

FIX: FIX in diluted reference plasma (HEMOSIL Calibration Plasma)
Mean Signal (bovine FX; FIX 0.0335 mU/mL): 3665
Signal/Background (bovine FX; FIX 0.0335 mU/mL): 1.1
Mean Signal (bovine FX; FIX 0.100 mU/mL): 4050
Signal/Background (bovine FX; FIX 0.100 mU/mL): 1.2
Mean Signal (bovine FX; FIX 0.301 mU/mL): 5626
Signal/Background (bovine FX; FIX 0.301 mU/mL): 1.6
Mean Signal (bovine FX; FIX 0.904 mU/mL): 8707
Signal/Background (bovine FX; FIX 0.904 mU/mL): 2.5
Mean Signal (bovine FX; FIX 2.71 mU/mL): 16884
Signal/Background (bovine FX; FIX 2.71 mU/mL): 4.9
Mean Signal (bovine FX; FIX 8.13 mU/mL): 30879
Signal/Background (bovine FX; FIX 8.13 mU/mL): 9.0
Mean Signal (bovine FX; FIX 24.4 mU/mL): 40234
Signal/Background (bovine FX; FIX 24.4 mU/mL): 11.7

NH2-IEGRDYKDDDDKGS-amide (H-IEGRDYKDDDDKGS-NH2) [Peptide sequence VI]
decrease of the background signals at the detectable FXa concentration (FXa; FXa 1.0 ng/mL or lower, background = sample without FXa): ~10%
% Signal Decrease (FXa; Xa 0.686 ng/mL): −8.5%
Mean Signal (FXa; Xa 0.686 ng/mL): 84026
% Signal Decrease (FXa; Xa 2.06 ng/mL): −22%
Mean Signal (FXa; Xa 2.06 ng/mL): 71945
% Signal Decrease (FXa; Xa 6.17 ng/mL): −42%
Mean Signal (FXa; Xa 6.17 ng/mL): 52963
% Signal Decrease (FXa; Xa 18.5 ng/mL): −60%
Mean Signal (FXa; Xa 18.5 ng/mL): 36383
% Signal Decrease (FXa; Xa 55.6 ng/mL): −75%
Mean Signal (FXa; Xa 55.6 ng/mL): 22509
% Signal Decrease (FXa; Xa 167 ng/mL): −84%
Mean Signal (FXa; Xa 167 ng/mL): 14300
% Signal Decrease (FXa; Xa 500 ng/mL): −89%
Mean Signal (FXa; Xa 500 ng/mL): 9830

heparin sodium Salt
% Signal Decrease (bovine factor Xa; Heparin 3.13 mIU/mL): −19%
Mean Signal (bovine factor Xa; Heparin 3.13 mIU/mL): 81999
% Signal Decrease (bovine factor Xa; Heparin 6.25 mIU/mL): −38%
Mean Signal (bovine factor Xa; Heparin 6.25 mIU/mL): 62502
% Signal Decrease (bovine factor Xa; Heparin 12.5 mIU/mL): −60%
Mean Signal (bovine factor Xa; Heparin 12.5 mIU/mL): 40868
% Signal Decrease (bovine factor Xa; Heparin 25.0 mIU/mL): −81%
Mean Signal (bovine factor Xa; Heparin 25.0 mIU/mL): 19648
% Signal Decrease (bovine factor Xa; Heparin 50.0 mIU/mL): −93%
Mean Signal (bovine factor Xa; Heparin 50.0 mIU/mL): 7203
% Signal Decrease (bovine factor Xa; Heparin 100 mIU/mL): −97%
Mean Signal (bovine factor Xa; Heparin 100 mIU/mL): 3322
